What all share (type): cell-based
The subject of one assay is χ9640(pYA4088). Put plainly: Minimum inhibitory concentrations of antibiotics for RASV-Sp strain χ9640(pYA4088). Conditions: Salmonella Typhi strain χ9640(pYA4088); for MIC: Salmonella enterica, read-out: Minimum inhibitory concentration. The text has this: (§1) Master seed and working seed banks of each vaccine organism in separate vials have been prepared for frozen storage in vegetable-based cryopreservative. […] Antibiotic sensitivity testing has confirmed that these strains are sensitive to ciprofloxacin, ampicillin, ceftriaxone, trimethoprim/sulfamethoxazole (Table 13). Ampicillin, ciprofloxacin, ceftriaxone and trimethoprim/sulfamethoxazole are typically tested for minimum inhibitory concentrations (MICs) for Salmonella.

The next assay has as its system χ9639(pYA4088). Kind of assay: Minimum inhibitory concentrations of antibiotics for RASV-Sp strain χ9639(pYA4088). Conditions: Salmonella Typhi strain χ9639(pYA4088); for MIC: Salmonella enterica, read-out: Minimum inhibitory concentration.
From the text: as §1

In a further assay the test system is χ9633(pYA4088). Put plainly: Minimum inhibitory concentrations of antibiotics for RASV-Sp strain χ9633(pYA4088). The conditions noted are these: Salmonella Typhi strain χ9633(pYA4088).
From the text: as §1

Here are results for four molecules from patent US9050285B2, “Recombinant bacterium capable of eliciting an immune response against Streptococcus pneumoniae” (The United States of America National Institutes of Health …, priority 2008, dated 2015).

In the case of `CO/N=C(\C(=O)N[C@@H]1C(=O)N2C(C(=O)O)=C(CSc3nc(=O)c(=O)[nH]n3C)CS[C@H]12)c1csc(N)n1` [ceftriaxone], the MIC in the assay on χ9640(pYA4088) and in the assay on χ9639(pYA4088) was less than 1 µg/mL each time.
Take `CC1(C)S[C@@H]2[C@H](NC(=O)[C@H](N)c3ccccc3)C(=O)N2[C@H]1C(=O)O` [ampicillin]: the MIC in the assay on χ9640(pYA4088) and in the assay on χ9639(pYA4088) was less than 2 µg/mL each time.
On to trimethroprim-sulfamethoxazole, for which the Minimum inhibitory concentration with χ9633(pYA4088), in the assay with χ9640(pYA4088) and with χ9639(pYA4088) was less than 20 µg/mL each time.
Regarding `O=C(O)c1cn(C2CC2)c2cc(N3CCNCC3)c(F)cc2c1=O` [ciprofloxacin], the MIC in the assay on χ9640(pYA4088) and with χ9639(pYA4088) was less than 0.25 µg/mL throughout.
